In patent US10028960B2, “Pyrimidine compounds as JAK kinase inhibitors” (THERAVANCE BIOPHARMA R&D IP, LLC, priority 2016, dated 2018):

Experiments:
[1] = tested on: IL-13 induced STAT6 phosphorylation in HT-29 human colorectal adenocarcinoma cells; assay: Cellular JAK potency assay: inhibition of IL-13 induced STAT6 phosphorylation; format: cell-based; details: IL-13 induced STAT6 phosphorylation, HT-29 cells; for IC50: Homo sapiens, read-out: HT-29 (pIC50) (converted)
Description: The potency of test compounds for inhibition of the JAK-dependent cytokine interleuken-13 (IL-13) was assessed by measuring IL-13 (IL-13, R&D Systems) induced STAT6 phosphorylation in HT-29 human colorectal adenocarcinoma cells (ATCC).
The anti-STAT6 antibody (Cell Signaling Technologies) was conjugated to AlphaScreen acceptor beads (Perkin Elmer), while the anti-pSTAT6 (pTyr641) antibody (Cell Signaling Technologies) was biotinylated using EZ-Link Sulfo-NHS-Biotin (Thermo Scientific).
HT-29 cells were grown at 37° C. in a 5% CO2 humidified incubator in McCoy's 5a Modified medium (ATCC) supplemented with 10% FBS (Hyclone), 100 U/mL penicillin, 100 μg/mL streptomycin (Life Technologies), and 2 mM GlutaMAX (Life Technologies). On day 1 of the assay, cells were seeded at a 7,500 cells/well density in white poly-D-lysine-coated 384-well plates (Corning) with 25 μL medium, and were allowed to adhere overnight in the incubator. On day 2 of the assay, the medium was removed and replaced with 12 μL of assay buffer (Hank's Balanced Salt Solution/HBSS, 25 mM HEPES, and 1 mg/ml bovine serum albumin/BSA) containing dose-responses of test compounds. Compounds were serially diluted in DMSO and then diluted another 1000-fold in media to bring the final DMSO concentration to 0.1%. Cells were incubated with test compounds at 37° C. for 1 h, and followed by the addition of 12 μL of pre-warmed IL-13 (12 ng/ml in assay buffer) for stimulation. After incubating at 37° C. for 30 min, the assay buffer (containing compound and IL-13) was removed, and 10 μL of cell lysis buffer (25 mM HEPES, 0.1% SDS, 1% NP-40, 5 mM MgCl2, 1.3 mM EDTA, 1 mM EGTA, and supplement with Complete Ultra mini protease inhibitors and PhosSTOP from Roche Diagnostics). The plates were shaken at ambient temperature for 30 min before the addition of detection reagents. A mixture of biotin-anti-pSTAT6 and anti-STAT6 conjugated acceptor beads was added first and incubated at ambient temperature for 2 h, followed by the addition of streptavidin conjugated donor beads (Perkin Elmer). After a minimum of 2 h incubation, the assay plates were read on the EnVision plate reader.
Results were expressed as the negative logarithm of the IC50 value, pIC50.

JAK1 = JAK1 (Homo sapiens (Human), UniProt P23458); assay: LanthaScreen JAK biochemical assay, JAK1; details: for Ki: read-out: JAK 1 (pKi) (converted)
Description: A panel of four LanthaScreen JAK biochemical assays (JAK1, 2, 3 and Tyk2) were carried in a common kinase reaction buffer (50 mM HEPES, pH 7.5, 0.01% Brij-35, 10 mM MgCl2, and 1 mM EGTA). Recombinant GST-tagged JAK enzymes and a GFP-tagged STAT1 peptide substrate were obtained from Life Technologies.

Sequence of JAK1 (P23458 whole entry): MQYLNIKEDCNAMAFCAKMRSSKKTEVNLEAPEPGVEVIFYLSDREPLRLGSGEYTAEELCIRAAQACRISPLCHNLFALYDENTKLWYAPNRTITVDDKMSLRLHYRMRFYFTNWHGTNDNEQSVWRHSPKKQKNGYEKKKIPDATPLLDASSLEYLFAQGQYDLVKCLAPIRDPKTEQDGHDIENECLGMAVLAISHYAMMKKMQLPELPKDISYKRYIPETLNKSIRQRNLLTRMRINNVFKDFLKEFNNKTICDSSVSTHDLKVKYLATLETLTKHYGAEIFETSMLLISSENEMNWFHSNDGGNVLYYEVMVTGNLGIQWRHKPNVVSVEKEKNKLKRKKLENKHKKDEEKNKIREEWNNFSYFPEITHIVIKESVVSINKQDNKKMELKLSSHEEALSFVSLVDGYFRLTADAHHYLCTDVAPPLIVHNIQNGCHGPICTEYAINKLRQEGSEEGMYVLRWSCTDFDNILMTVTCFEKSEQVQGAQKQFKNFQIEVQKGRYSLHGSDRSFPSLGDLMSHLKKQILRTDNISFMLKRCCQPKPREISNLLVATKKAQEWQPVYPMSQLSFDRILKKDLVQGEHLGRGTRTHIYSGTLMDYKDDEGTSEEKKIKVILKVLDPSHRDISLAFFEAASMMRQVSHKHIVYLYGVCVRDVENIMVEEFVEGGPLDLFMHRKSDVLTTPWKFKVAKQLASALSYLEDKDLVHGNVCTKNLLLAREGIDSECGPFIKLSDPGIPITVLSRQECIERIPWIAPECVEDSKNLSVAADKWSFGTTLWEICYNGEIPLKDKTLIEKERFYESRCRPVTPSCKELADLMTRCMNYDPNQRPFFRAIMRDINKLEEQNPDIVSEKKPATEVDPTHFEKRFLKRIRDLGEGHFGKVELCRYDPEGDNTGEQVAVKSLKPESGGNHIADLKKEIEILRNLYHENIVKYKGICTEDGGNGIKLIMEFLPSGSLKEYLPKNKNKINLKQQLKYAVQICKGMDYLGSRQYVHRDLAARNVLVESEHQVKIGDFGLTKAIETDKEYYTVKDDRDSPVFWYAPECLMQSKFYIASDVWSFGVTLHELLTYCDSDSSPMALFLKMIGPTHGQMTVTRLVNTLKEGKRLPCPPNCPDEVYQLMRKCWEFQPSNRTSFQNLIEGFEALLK

| SMILES | IC50 [1] [nM] | Ki (JAK1) [nM] | HT-29 (pIC50) [1] | JAK 1 (pKi) (JAK1) |
| --- | --- | --- | --- | --- |
| COc1cc(Nc2cc(CO)[nH]n2)nc(N[C@@H]2C[C@H]3CC[C@@H](C2)N3S(=O)(=O)N2CCC2)n1 [Example 1-1] | 31.6 to 200 | 1 to 10 |  |  |
| COc1cc(Nc2cc(CO)[nH]n2)nc(N[C@@H]2C[C@H]3CC[C@@H](C2)N3S(=O)(=O)N2CC(C#N)C2)n1 [Example 1-2] | 200 to 1000 | 0.1 to 1 |  |  |
| COc1cc(Nc2cc(CO)[nH]n2)nc(N[C@@H]2C[C@H]3CC[C@@H](C2)N3S(=O)(=O)c2cccnc2)n1 [Example 1-3] | 200 to 1000 | 1 to 10 |  |  |
| COc1cc(Nc2cc(CO)[nH]n2)nc(N[C@@H]2C[C@H]3CC[C@@H](C2)N3S(=O)(=O)c2ccccc2)n1 [Example 1-4] |  | 10 to 31.6 |  |  |
| COc1cc(Nc2cc(CO)[nH]n2)nc(N[C@@H]2C[C@H]3CCC[C@@H](C2)N3S(=O)(=O)N2CCC2)n1 [Example 1-5, (3-((2-(((1R,3s,5S)-9-(azetidin-1-ylsulfonyl)-9-azabicyclo[3.3.1]nonan-3-yl)amino)-6-methoxypyrimidin-4-yl)amino)-1H-pyrazol-5-yl)methanol] |  |  | B (B represents a pIC50 value between 6.7 and 7.5 (IC50 between 200 nM and 32 nM)) | B (B represents a pKi value between 9 and 10 (Ki between 1 nM and 0.1 nM)) |
| COc1cc(Nc2cc(CO)[nH]n2)nc(N[C@@H]2C[C@H]3CCC[C@@H](C2)N3S(=O)(=O)N2CC(C#N)C2)n1 [Example 1-6, 1-(((1R,3s,5S)-3-((4-((5-(hydroxymethyl)-1H-pyrazol-3-yl)amino)-6-methoxypyrimidin-2-yl)amino)-9-azabicyclo[3.3.1]nonan-9-yl)sulfonyl)azetidine-3-carbonitrile] |  |  | B (B represents a pIC50 value between 6.7 and 7.5 (IC50 between 200 nM and 32 nM)) | A (A represents a pKi value≥10 (Ki≤0.1 nM)) |
| COc1cc(Nc2cc(CO)[nH]n2)nc(N[C@@H]2C[C@H]3CCC[C@@H](C2)N3S(=O)(=O)c2cncc(F)c2)n1 [Example 1-7, (3-((2-(((1R,3s,5S)-9-((5-fluoropyridin-3-yl)sulfonyl)-9-azabicyclo[3.3.1]nonan-3-yl)amino)-6-methoxypyrimidin-4-yl)amino)-1H-pyrazol-5-yl)methanol] |  |  |  | B (B represents a pKi value between 9 and 10 (Ki between 1 nM and 0.1 nM)) |
| COc1cc(Nc2cc(CO)[nH]n2)nc(N[C@@H]2C[C@H]3CCC[C@@H](C2)N3S(=O)(=O)c2ccccc2)n1 [Example 1-8, (3-((6-methoxy-2-(((1R,3s,5S)-9-(phenylsulfonyl)-9-azabicyclo[3.3.1]nonan-3-yl)amino)pyrimidin-4-yl)amino)-1H-pyrazol-5-yl)methanol] |  |  | A (A represents a pIC50 value≥7.5 (IC50≤32 nM)) | A (A represents a pKi value≥10 (Ki≤0.1 nM)) |
| CCS(=O)(=O)N1[C@@H]2CCC[C@H]1C[C@H](Nc1nc(Nc3cc(CO)[nH]n3)cc(OC)n1)C2 [Example 1-9, (3-((2-(((1R,3s,5S)-9-(ethylsulfonyl)-9-azabicyclo[3.3.1]nonan-3-yl)amino)-6-methoxypyrimidin-4-yl)amino)-1H-pyrazol-5-yl)methanol] |  |  | B (B represents a pIC50 value between 6.7 and 7.5 (IC50 between 200 nM and 32 nM)) | B (B represents a pKi value between 9 and 10 (Ki between 1 nM and 0.1 nM)) |
| COc1cc(Nc2cc(CO)[nH]n2)nc(N[C@@H]2C[C@H]3CCC[C@@H](C2)N3S(=O)(=O)CC2CC2)n1 [Example 1-10, (3-((2-(((1R,3s,5S)-9-((cyclopropylmethyl)sulfonyl)-9-azabicyclo[3.3.1]nonan-3-yl)amino)-6-methoxypyrimidin-4-yl)amino)-1H-pyrazol-5-yl)methanol] |  |  |  | B (B represents a pKi value between 9 and 10 (Ki between 1 nM and 0.1 nM)) |
| COc1cc(Nc2cc(CO)[nH]n2)nc(N[C@@H]2C[C@H]3CCC[C@@H](C2)N3S(=O)(=O)c2cccnc2)n1 [Example 1-11, (3-((6-methoxy-2-(((1R,3s,5S)-9-(pyridin-3-ylsulfonyl)-9-azabicyclo[3.3.1]nonan-3-yl)amino)pyrimidin-4-yl)amino)-1H-pyrazol-5-yl)methanol] |  |  | B (B represents a pIC50 value between 6.7 and 7.5 (IC50 between 200 nM and 32 nM)) | B (B represents a pKi value between 9 and 10 (Ki between 1 nM and 0.1 nM)) |
| COc1cc(Nc2cc(CO)[nH]n2)nc(N(C)[C@@H]2C[C@H]3CCC[C@@H](C2)N3S(=O)(=O)CC2CC2)n1 [Example 1-18, (3-((2-(((1R,3s,5S)-9-((cyclopropylmethyl)sulfonyl)-9-azabicyclo[3.3.1]nonan-3-yl)(methyl)amino)-6-methoxypyrimidin-4-yl)amino)-1H-pyrazol-5-yl)methanol] |  |  |  | B (B represents a pKi value between 9 and 10 (Ki between 1 nM and 0.1 nM)) |
| COc1cc(Nc2cc(CO)[nH]n2)nc(N(C)[C@@H]2C[C@H]3CCC[C@@H](C2)N3S(=O)(=O)c2cncc(F)c2)n1 [Example 1-19, (3-((2-(((1R,3s,5S)-9-((5-fluoropyridin-3-yl)sulfonyl)-9-azabicyclo[3.3.1]nonan-3-yl)(methyl)amino)-6-methoxypyrimidin-4-yl)amino)-1H-pyrazol-5-yl)methanol] |  |  | A (A represents a pIC50 value≥7.5 (IC50≤32 nM)) | B (B represents a pKi value between 9 and 10 (Ki between 1 nM and 0.1 nM)) |
| COc1cc(Nc2cc(CO)[nH]n2)nc(N[C@@H]2C[C@H]3CC[C@@H](C2)N3Cc2ccncc2)n1 [Example 2-1] |  |  | C (C represents a pIC50 value between 6 and 6.7 (IC50 between 1 μM and 200 nM)) | C (C represents a pKi value between 8 and 9 (Ki between 10 nM and 1 nM)) |
| COc1cc(Nc2cc(CO)[nH]n2)nc(N[C@@H]2C[C@H]3CCC[C@@H](C2)N3Cc2ccncc2)n1 [Example 2-2] |  |  | B (B represents a pIC50 value between 6.7 and 7.5 (IC50 between 200 nM and 32 nM)) | B (B represents a pKi value between 9 and 10 (Ki between 1 nM and 0.1 nM)) |
| COc1cc(Nc2cc(CO)[nH]n2)nc(N[C@@H]2C[C@H]3CCC[C@@H](C2)N3Cc2ccnc(C#N)c2)n1 [Example 2-3, 4-(((1R,3s,5S)-3-((4-((5-(hydroxymethyl)-1H-pyrazol-3-yl)amino)-6-methoxypyrimidin-2-yl)amino)-9-azabicyclo[3.3.1]nonan-9-yl)methyl)picolinonitrile] |  |  | B (B represents a pIC50 value between 6.7 and 7.5 (IC50 between 200 nM and 32 nM)) | B (B represents a pKi value between 9 and 10 (Ki between 1 nM and 0.1 nM)) |
| COc1cc(Nc2cc(CO)[nH]n2)nc(N[C@@H]2C[C@H]3CCC[C@@H](C2)N3C(=O)C(F)F)n1 [Example 3-1, 2,2-difluoro-1-((1R,3s,5S)-3-((4-((5-(hydroxymethyl)-1H-pyrazol-3-yl)amino)-6-methoxypyrimidin-2-yl)amino)-9-azabicyclo[3.3.1]nonan-9-yl)ethan-1-one] |  |  |  | B (B represents a pKi value between 9 and 10 (Ki between 1 nM and 0.1 nM)) |
| COc1cc(Nc2cc(CO)[nH]n2)nc(N[C@@H]2C[C@H]3CCC[C@@H](C2)N3Cc2ccc(C#N)nc2)n1 [Example 6, 5-(((1R,3s,5S)-3-((4-((5-(hydroxymethyl)-1H-pyrazol-3-yl)amino)-6-methoxypyrimidin-2-yl)amino)-9-azabicyclo[3.3.1]nonan-9-yl)methyl)picolinonitrile] |  | 0.1 to 1 |  |  |
| COc1cc(Nc2cc(CO)[nH]n2)nc(N(C)C2C[C@H]3CCC[C@@H](C2)N3C(=O)C(F)F)n1 (stereo partly drawn) [Example 9, 2,2-difluoro-1-((1R,3s,5S)-3-((4-((5-(hydroxymethyl)-1H-pyrazol-3-yl)amino)-6-methoxypyrimidin-2-yl)(methyl)amino)-9-azabicyclo[3.3.1]nonan-9-yl)ethan-1-one] | 31.6 to 200 |  |  |  |
